Values of other authors, collected in patent US7718385B2, “Bioactivation of alkylating agents for cancer treatment” (priority 2003, dated 2010).

Columns and labels:
IGROVI = settings: cited from earlier work
OVCAR-4 = settings: OVCAR-4, Ovarian, cited from earlier work
SW-620 = settings: SW-620, Colon, cited from earlier work
NCI-H522 = settings: NCI-H522, Non-Small Cell Lung, cited from earlier work
SK-MEL-5 = settings: SK-MEL-5, Melanoma, cited from earlier work
SNB-19 = settings: SNB-19, Central Nervous System, cited from earlier work
TK-10 = settings: TK-10, Renal, cited from earlier work
SF-268 = settings: SF-268, Central Nervous System, cited from earlier work
A498 = settings: A498, Renal, cited from earlier work
UACC-257 = settings: UACC-257, Melanoma, cited from earlier work
OVCAR-8 = settings: OVCAR-8, Ovarian, cited from earlier work
T-47D = settings: cited from earlier work
MCF7 = settings: MCF7, Breast, cited from earlier work
HL-60(TB) = settings: cited from earlier work
U251 = settings: U251, Central Nervous System, cited from earlier work
MDA-MB 435 = settings: MDA-MB 435, Breast, cited from earlier work
HCT-15 = settings: HCT-15, Colon, cited from earlier work
A549/ATCC = settings: cited from earlier work
LOX IMVI = settings: cited from earlier work
HT29 = settings: HT29, Colon, cited from earlier work
HS 578T = settings: cited from earlier work

CC1=C(CO)C2=C(C)C3(CC3)[C@@](C)(O)C(=O)C2=C1 [Irofulven, 6-hydroxymethylacylfulvene]
GI50 (IGROVI; Ovarian): 0.158 µM | TGI (IGROVI; Ovarian): 5.01E−07 | log(GI50) (IGROVI; Ovarian): −6.8 | log(LC50) (IGROVI; Ovarian): −5.2 | log(TGI) (IGROVI; Ovarian): −6.3 | CC50 (IGROVI; read-out: LC50, Ovarian): 6.31 µM | GI50 (OVCAR-4): 0.251 µM | TGI (OVCAR-4): 6.31E−07 | log(GI50) (OVCAR-4): −6.6 | log(LC50) (OVCAR-4): −4.6 | log(TGI) (OVCAR-4): −6.2 | CC50 (OVCAR-4; read-out: LC50): 25.1 µM | GI50 (SW-620): 0.631 µM | TGI (SW-620): 3.16E−05 | log(GI50) (SW-620): −6.2 | log(TGI) (SW-620): −4.5 | CC50 (SW-620; read-out: LC50): ≥ 100 µM | GI50 (NCI-H522): 0.158 µM | TGI (NCI-H522): 6.31E−07 | log(GI50) (NCI-H522): −6.8 | log(LC50) (NCI-H522): −5.1 | log(TGI) (NCI-H522): −6.2 | CC50 (NCI-H522; read-out: LC50): 7.94 µM | GI50 (SK-MEL-5): 0.158 µM | TGI (SK-MEL-5): 3.98E−07 | log(GI50) (SK-MEL-5): −6.8 | log(LC50) (SK-MEL-5): −6 | log(TGI) (SK-MEL-5): −6.4 | CC50 (SK-MEL-5; read-out: LC50): 1 µM | GI50 (SNB-19): 0.316 µM | TGI (SNB-19): 1.00E−05 | log(GI50) (SNB-19): −6.5 | log(LC50) (SNB-19): −4.2 | log(TGI) (SNB-19): −5 | CC50 (SNB-19; read-out: LC50): 63.1 µM | GI50 (TK-10): 0.251 µM | TGI (TK-10): 1.26E−06 | log(GI50) (TK-10): −6.6 | log(TGI) (TK-10): −5.9 | CC50 (TK-10; read-out: LC50): ≥ 100 µM | GI50 (SF-268): 0.251 µM | TGI (SF-268): 2.51E−06 | log(GI50) (SF-268): −6.6 | log(TGI) (SF-268): −5.6 | CC50 (SF-268; read-out: LC50): ≥ 100 µM | GI50 (A498): 0.2 µM | TGI (A498): 5.01E−07 | log(GI50) (A498): −6.7 | log(LC50) (A498): −5.7 | log(TGI) (A498): −6.3 | CC50 (A498; read-out: LC50): 2 µM | GI50 (UACC-257): 0.251 µM | TGI (UACC-257): 5.01E−07 | log(GI50) (UACC-257): −6.6 | log(LC50) (UACC-257): −5.3 | log(TGI) (UACC-257): −6.3 | CC50 (UACC-257; read-out: LC50): 5.01 µM | GI50 (OVCAR-8): 0.2 µM | TGI (OVCAR-8): 6.31E−07 | log(GI50) (OVCAR-8): −6.7 | log(LC50) (OVCAR-8): −5 | log(TGI) (OVCAR-8): −6.2 | CC50 (OVCAR-8; read-out: LC50): 10 µM | GI50 (T-47D; Breast): 0.2 µM | TGI (T-47D; Breast): 2.51E−06 | log(GI50) (T-47D; Breast): −6.7 | log(TGI) (T-47D; Breast): −5.6 | CC50 (T-47D; read-out: LC50, Breast): ≥ 100 µM | GI50 (MCF7): 0.251 µM | TGI (MCF7): 2.00E−06 | log(GI50) (MCF7): −6.6 | log(TGI) (MCF7): −5.7 | CC50 (MCF7; read-out: LC50): ≥ 100 µM | GI50 (HL-60(TB); Leukemia): 0.251 µM | TGI (HL-60(TB); Leukemia): 2.00E−06 | log(GI50) (HL-60(TB); Leukemia): −6.6 | log(TGI) (HL-60(TB); Leukemia): −5.7 | CC50 (HL-60(TB); read-out: LC50, Leukemia): ≥ 100 µM | GI50 (U251): 0.316 µM | TGI (U251): 6.31E−06 | log(GI50) (U251): −6.5 | log(LC50) (U251): −4.3 | log(TGI) (U251): −5.2 | CC50 (U251; read-out: LC50): 50.1 µM | GI50 (MDA-MB 435): 1.58 µM | TGI (MDA-MB 435): 6.31E−06 | log(GI50) (MDA-MB 435): −5.8 | log(LC50) (MDA-MB 435): −4.4 | log(TGI) (MDA-MB 435): −5.2 | CC50 (MDA-MB 435; read-out: LC50): 39.8 µM | GI50 (HCT-15): 0.316 µM | TGI (HCT-15): 5.01E−06 | log(GI50) (HCT-15): −6.5 | log(TGI) (HCT-15): −5.3 | CC50 (HCT-15; read-out: LC50): ≥ 100 µM | GI50 (A549/ATCC; Non-Small Cell Lung): 0.126 µM | TGI (A549/ATCC; Non-Small Cell Lung): 1.58E−06 | log(GI50) (A549/ATCC; Non-Small Cell Lung): −6.9 | log(TGI) (A549/ATCC; Non-Small Cell Lung): −5.8 | CC50 (A549/ATCC; read-out: LC50, Non-Small Cell Lung): ≥ 100 µM | GI50 (LOX IMVI; Melanoma): 0.631 µM | TGI (LOX IMVI; Melanoma): 3.16E−06 | log(GI50) (LOX IMVI; Melanoma): −6.2 | log(LC50) (LOX IMVI; Melanoma): −4.4 | log(TGI) (LOX IMVI; Melanoma): −5.5 | CC50 (LOX IMVI; read-out: LC50, Melanoma): 39.8 µM | GI50 (HT29): 0.251 µM | TGI (HT29): 1.26E−06 | log(GI50) (HT29): −6.6 | log(TGI) (HT29): −5.9 | CC50 (HT29; read-out: LC50): ≥ 100 µM | GI50 (HS 578T; Breast): 0.316 µM | TGI (HS 578T; Breast): 1.58E−06 | log(GI50) (HS 578T; Breast): −6.5 | log(LC50) (HS 578T; Breast): −4.7 | log(TGI) (HS 578T; Breast): −5.8 | CC50 (HS 578T; read-out: LC50, Breast): 20 µM
